Source: publication PMC10149367, “The ferroptosis inducing compounds RSL3 and ML162 are not direct inhibitors of GPX4 but of TXNRD1” (Redox Biology, 2023)

How the values were obtained:
GPX1 = target: T1, GPX1 (Homo sapiens, UniProt P07203); experiment: GPX1 activity assay, pure enzyme (NADPH consumption, cumene hydroperoxide); format: biochemical; conditions: for IC50: recombinant GPX1, 30 min preincubation, read-out: IC50 GPX1 inhibition
T1 construct: made in house
T1 sequence (P07203 1-203): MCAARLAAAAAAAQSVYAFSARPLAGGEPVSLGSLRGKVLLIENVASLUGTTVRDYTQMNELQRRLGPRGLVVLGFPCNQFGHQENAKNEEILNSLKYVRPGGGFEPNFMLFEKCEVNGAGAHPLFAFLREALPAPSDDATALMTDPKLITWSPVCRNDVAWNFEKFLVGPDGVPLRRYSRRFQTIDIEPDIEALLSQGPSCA
Procedure: (§1) Recombinant human proteins—Recombinant human selenoprotein GPX and TXNRD isoenzymes as well as recombinant human GR were cloned, expressed, and purified as described previously [[26], [27], [28]].
(§2) Biochemical assays—GPX assays were run as previously described [[26], [27], [28]] in a clear medium-binding 96-well SpectraPlates (PerkinElmer). Briefly, 198 μL of 10 nM GPX1 or 200 nM GPX4 were incubated with 2 μL compounds or DMSO in TES buffer (50 mM Tris-HCl, 2 mM EDTA (pH 7.5), 150 mM NaCl) with BSA at room temperature for 30 min. Then, 40 μL of master mix (100 nM GR, 1 mM GSH, 0.5 mM NADPH in TES buffer) was added. To start the reaction, 10 μL of Cumene hydroperoxide ([0.5 mM] in 50% EtOH) was then added. Absorbance at 340 nm was measured using a Tecan Infinite® M Nano microplate reader every 20 s for 30 min. Four replicates were run, unless otherwise stated.

GPX4 [1] = target: T2, GPX4 (Homo sapiens, UniProt P36969); experiment: GPX4 activity assay, pure enzyme (NADPH consumption, cumene hydroperoxide); format: biochemical; conditions: for IC50: recombinant GPX4, 30 min preincubation, read-out: IC50 GPX4 inhibition
T2 construct: made in house
T2 sequence (P36969 1-170 isoform P36969-2): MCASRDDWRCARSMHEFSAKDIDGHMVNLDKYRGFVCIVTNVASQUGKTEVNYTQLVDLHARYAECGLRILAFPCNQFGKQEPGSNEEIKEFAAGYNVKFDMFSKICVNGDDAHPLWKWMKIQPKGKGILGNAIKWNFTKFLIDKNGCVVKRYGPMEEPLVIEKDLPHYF
Procedure: as §1, §2

TXNRD1 [2] = target: T3, TXNRD1 (Homo sapiens, UniProt Q16881); experiment: TXNRD1 activity assay, pure enzyme (Fig. 1A); format: biochemical
T3 construct: made in house
T3 sequence (Q16881 1-499 isoform Q16881-5): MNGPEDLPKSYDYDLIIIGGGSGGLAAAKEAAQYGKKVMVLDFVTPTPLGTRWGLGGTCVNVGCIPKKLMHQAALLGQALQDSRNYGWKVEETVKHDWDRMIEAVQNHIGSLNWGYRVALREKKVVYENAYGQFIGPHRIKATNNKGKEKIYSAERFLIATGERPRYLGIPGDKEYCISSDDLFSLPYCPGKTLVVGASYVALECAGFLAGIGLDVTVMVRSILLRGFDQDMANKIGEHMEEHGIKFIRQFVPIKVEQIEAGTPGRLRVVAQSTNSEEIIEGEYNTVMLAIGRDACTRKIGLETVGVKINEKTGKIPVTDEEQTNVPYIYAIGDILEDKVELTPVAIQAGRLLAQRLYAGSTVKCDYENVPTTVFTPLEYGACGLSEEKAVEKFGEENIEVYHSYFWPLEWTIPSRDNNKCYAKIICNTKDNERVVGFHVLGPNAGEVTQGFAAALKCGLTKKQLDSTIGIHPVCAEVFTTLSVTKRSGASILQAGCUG
Procedure: as §1
(§3) TXNRD1 selenite and DTNB assays were run as previously described [[26], [27], [28]]. Dose-response curves and IC50s were generated using Excel and GraphPad Prism. Briefly, initial slopes of NADPH consumption were normalized to DMSO controls and IC50s were calculated using log(inhibitor) vs. response—Variable slope (four parameters).

[3] = tested on: malondialdehyde (MDA) and Ptgs2 mRNA levels; design: method as in PMID 32732975; conditions: hemochromatosis mouse model; reversed by Ferrostatin-1; cited from earlier work
GPX4 [4] = tested on: GPX4; design: method as in PMID 33812801; conditions: cited from earlier work
TXNRD1 [5] = target: T3, TXNRD1; experiment: TXNRD1 orthogonal assays (selenite reduction, DTNB reduction; Extended Data Fig. 2); format: biochemical; conditions: selenite and DTNB assays
Procedure: as §3
Supplementary Data Extended Data Set
(Extended Data Fig. 2A, left panel). Measuring inhibition of TXNRD1 activity, as a complement to the analyses shown in the main text of this article, we also assessed this using two orthogonal approaches: 1. by the measurement of NADPH consumption coupled to direct selenite reduction of TXNRD1, either through the decrease in absorbance at 340 nm or decrease in its fluorescence, and 2. measuring TXNRD1-catalyzed DTNB reduction based upon quantification of TNB- anions absorbing at 412 nm as formed upon TXNRD1-catalyzed reduction of the disulfide in DTNB. Using these assays, we could confirm that the RSL3 inhibition of TXNRD1 was not an artifact due to specific assay conditions, with both RSL3 and ML162 showing complete inhibition of TXNRD1 at the higher end of the concentrations assessed here (2.8 ± 0.9% and 5.8 ± 0.9% remaining activity with just 5 µM of RSL3 and […]
ML162 (Extended Data Fig. 2A, middle and right panels, and 2B). […]
any inhibition of TXNRD1 in any of the assays. […]
µM, respectively (Extended Data Fig. 2B). Like with TRi-1 and TRi-2, inhibition of both TXNRD1 and TXNRD2 by RSL3 and ML162 was essentially dependent on pre-reduction of the enzyme by NADPH in order to yield potent and complete inactivation. Both compounds […]
ML162 in the absence of NADPH and subsequently assayed for activity; however, this could also be due to carry-over of the compounds to the NADPH dependent enzyme activity assay.
Because the reduction step with NADPH reduces a selenenylsulfide at the C-terminal active […]
of the selenolate at the C-terminal active site of the NADPH-reduced enzyme. That some […]
compounds might also bind some other additional site(s) in the enzyme. That notion is further strengthened by the fact that thermostability of TXNRD1 was also affected at higher concentrations of compounds when incubated with the enzyme in the absence of NADPH (see […]
dose-response curve fit to the average of n = 3 technical replicates. […]
well (middle left panel) and 1536-well format (not shown), as well as a DTNB assay (middle […]
TXNRD2 by RSL3 (left panel), ML162 (middle left panel), TRi-1 (middle right panel), and TRi-2 (right panel) are modulated by NADPH pre-treatment; Data are presented as mean ± s.d.; Four-parameter dose-response curve fit to the average of n = 3 technical replicates (n = 2

GPX4 [6] = target: T2, GPX4; experiment: nano differential scanning fluorimetry, GPX4; format: binding; conditions: 100 μM compound; DMSO control 51.7 °C
Procedure: Nano differential scanning fluorimetry—Real-time monitoring of fluorescence emission at 330 nm and 350 nm (excitation wavelength: 280 nm) and backscattering absorbance of GPX4 and TXNRD1 samples in the presence of compound was performed using a NanoTemper Prometheus NT.48 instrument. First, 0.25 mg/mL enzyme was incubated with 100 μM compound or DMSO for 15 min at room temperature. Standard capillaries were used, and temperature was increased from 25 to 95 °C with a ramp rate of 4.0 °C/min. Three biological replicates were carried out for each condition, and their means and standard deviations are depicted.

TXNRD1 [7] = target: T4, TXNRD1 (Homo sapiens, UniProt Q16881); experiment: Cellular TXNRD1 assay with RX1 probe in A549 cells; format: cell-based
T4 construct: RX1 probe that specifically reports upon TXNRD1 enzymatic activity in live cells; endogenous in cells; host or cells: A549
T4 sequence (Q16881 151-649 limits assumed): T3 sequence (Q16881 1-499 isoform Q16881-5)
Procedure: Cellular TXNRD1 assay—20,000 or 10,000 A549 cells (for 4 h or 12 h and 24 h compound incubation respectively) were seeded in 96-well plates (microplates, 96 well, F-bottom, black, clear bottom, ViewPlateTM-96 F TC, PerkinElmer), in a total volume of 100 μL full DMEM (supplemented with 10% FBS and 100 nM Na2SeO3). […] The cells were subsequently incubated for the respective mentioned time, washed once with full DMEM and fresh, full DMEM, containing 75 μM RX1 and 0.75% DMSO, was added and the first fluorescent measurement was conducted immediately (timepoint = 0) using a Tecan Infinite M200 plate reader (ex/em 355/520). To follow the kinetic activation of RX1, a fluorescent measurement was done every hour for 6 h. Between measurements, cells were stored at 37 °C and 5% CO2. As a control, cells treated with compounds, but not with RX1, just the respective DMSO content, were used for background fluorescent. To determine how the cells were viable throughout the RX1 assay, the control cells were used for a viability measurement, using CellTiter-Glo® Luminescent Cell Viability Assay, after the final fluorescent measurement. For final data analysis, raw data was processed using Microsoft Excel and GraphPad Prism. In brief, the slope of the activated RX1 fluorescence increase was in each case calculated and normalized, using the viability measurement of the control cells.

A549 cells = experiment: A549 viability in cellular TXNRD1 (RX1) experiments; conditions: A549, 4 h, Extended Data Fig. 3A
Procedure: Cellular TXNRD1 assay—20,000 or 10,000 A549 cells (for 4 h or 12 h and 24 h compound incubation respectively) were seeded in 96-well plates (microplates, 96 well, F-bottom, black, clear bottom, ViewPlateTM-96 F TC, PerkinElmer), in a total volume of 100 μL full DMEM (supplemented with 10% FBS and 100 nM Na2SeO3). The cells were incubated for 16 h at 37 °C and 5% CO2, followed by media change and addition of indicated compounds at respective concentrations (0.1 μM–20 μM), including 0.6% DMSO. The cells were subsequently incubated for the respective mentioned time, washed once with full DMEM and fresh, full DMEM, containing 75 μM RX1 and 0.75% DMSO, was added and the first fluorescent measurement was conducted immediately (timepoint = 0) using a Tecan Infinite M200 plate reader (ex/em 355/520). To follow the kinetic activation of RX1, a fluorescent measurement was done every hour for 6 h. Between measurements, cells were stored at 37 °C and 5% CO2. As a control, cells treated with compounds, but not with RX1, just the respective DMSO content, were used for background fluorescent. To determine how the cells were viable throughout the RX1 assay, the control cells were used for a viability measurement, using CellTiter-Glo® Luminescent Cell Viability Assay, after the final fluorescent measurement. For final data analysis, raw data was processed using Microsoft Excel and GraphPad Prism. In brief, the slope of the activated RX1 fluorescence increase was in each case calculated and normalized, using the viability measurement of the control cells.
Extended Data Figure 3: A549 cytotoxicity in cellular TXNRD1 experiments following final
A) Cell viability following 4-hour incubation with
compounds; B) Viability following 12-hour incubation with compounds; C) Viability
following 24 -hour incubation with compounds. The cell viability in was in each case measured
using the Cell Quanti-BlueTM Cell Viability Assay Kit and the data are presented as mean ±
s.d. of n = 3 biological replicates, each containing n = 3 technical replicates.

[8] = recombinant selenoprotein, pure enzyme system

Q: With `O=C(O)CC(S)C(=O)O` (centres unmarked) [mercaptosuccinic acid] as the compound, how does the IC50 (GPX1) read?
A: < 10 µM

Q: What about the IC50 (GPX4 [1]) of the same compound?
A: < 10 µM

Q: For `[Cl][Hg][Cl]` [mercuric chloride], which IC50 (GPX1) is on record?
A: < 10 µM

Q: And the IC50 (GPX4 [1])?
A: < 10 µM

Q: For `CC(=O)OC[C@H]1O[C@@H]([S-])[C@H](OC(C)=O)[C@@H](OC(C)=O)[C@@H]1OC(C)=O.CCP(CC)CC.[Au+]` [Auranofin, auranofin], which IC50 (GPX1) is on record?
A: 4.7 µM

Q: What about the IC50 (TXNRD1 [2]; recombinant TXNRD1, Fig. 1A assay conditions, read-out: IC50 TXNRD1 inhibition) of the same compound?
A: ~19 µM

Q: And the “Hepatic malondialdehyde (MDA) and Ptgs2 mRNA levels” value [3]?
A: increase in hepatic malondialdehyde (MDA)

Q: What about the “Effect on GPX4 expression levels” value (GPX4 [4]) of the same compound?
A: decrease GPX4 expression levels

Q: For `Cc1onc(C(=O)N2CCN(C(c3ccc(Cl)cc3)c3ccc(Cl)cc3)CC2)c1[N+](=O)[O-]` [ML210], which “Inhibition of GPX1” value (GPX1; [8]) is on record?
A: neither RSL3, ML162, nor ML210 inhibited either GPX isoenzyme

Q: And the “Inhibition of GPX4” value (GPX4 [1]; [8])?
A: neither RSL3, ML162, nor ML210 inhibited either GPX isoenzyme

Q: And the “Inhibition of TXNRD1 in any of the assays” value (TXNRD1 [5])?
A: did not show any inhibition of TXNRD1

Q: What about the “Tm of GPX4 (nanoDSF)” value (GPX4 [6]) of the same compound?
A: 52.1 °C

Q: And the “Effect on cellular TXNRD1 activity (RX1)” value (TXNRD1 [7]; A549, 20 μM)?
A: slightly suppressed TXNRD1 activity

Q: And the “Effect on cellular TXNRD1 activity (RX1)” value (TXNRD1 [7]; A549, 0.5–1 μM)?
A: tendency to increase the TXNRD1 activity

Q: And the “Effect on cellular TXNRD1 activity (RX1) at 4 h” value (TXNRD1 [7]; A549, 4 h incubation, RSL3 and ML162 at 1 μM or higher)?
A: increase in TXNRD1 activity

Q: And the “Effect on cell viability at 4 h” value (A549 cells)?
A: no overt effects on viability

Q: With `OC[C@H]1O[C@H]([S-])[C@H](O)[C@@H](O)[C@@H]1O.[Au+]` [aurothioglucose] as the compound, how does the “Specificity among GPX1, GPX4, GR and TXNRD1” value (TXNRD1 [2]; pure enzyme systems, Fig. 1A lower panels) read?
A: only showed TXNRD1 inhibition
